These results are taken from paper PMC10139033, “Identification of Potential p38γ Inhibitors via In Silico Screening, In Vitro Bioassay and Molecular Dynamics Simulation Studies” (International Journal of Molecular Sciences, 2023).

The test system of one experiment is Huh7 cells. Put plainly: CCK-8 cytotoxicity assay, Huh7. The class given is cell-based, human. The procedure: (§1) The compounds were tested for HCC cell lines using the Cell Counting Kit-8 (CCK-8) (Absin, Shanghai, China). The human HCC cell lines Huh7 and HepG2 were cultured in high-glucose Dulbecco’s modified Eagle’s medium (DMEM) supplemented with 10% fetal bovine serum (FBS), 1% penicillin, and 1% penicillin/streptomycin at 37 °C with 5% CO2. Huh7 and HepG2 cells were seeded into white 96-well plates at 3 × 10^3 cells per well in 100 μL suspension and pre-incubated overnight. The cells were then treated with different compound concentrations and incubated for 48 h. Control wells just contained cell suspension, while blank wells were added with complete media. The effects on proliferation were determined by the addition of 10 µL CCK-8 reagent, followed by incubation for 1 h. Finally, the absorbance of the reaction was measured at 450 nm using a Victor Nivo Multimode Microplate Reader. Cell viability was calculated as follows: Cell viability%= experimental well absorbance−blank well absorbance /control well absorbance−blank well absorbance ×100%
(§2) All data were collected from triplicate experiments and presented as the mean ± standard deviation of the mean. Data were analyzed using Graph Prism v9.0.0.121. One sample t test was used to calculate the statistical significance of the differences. p < 0.05 was considered statistically significant. The four-parameter dose-response curves and IC50 values were determined by a non-linear regression curve fitting method.
(In general: Formazan colour is commonly taken as a measure of viable cells.)

The target of experiment [1] is T1, p38γ (Homo sapiens, UniProt P53778).
T1 construct: purchased Promega
T1 sequence (P53778 1-367): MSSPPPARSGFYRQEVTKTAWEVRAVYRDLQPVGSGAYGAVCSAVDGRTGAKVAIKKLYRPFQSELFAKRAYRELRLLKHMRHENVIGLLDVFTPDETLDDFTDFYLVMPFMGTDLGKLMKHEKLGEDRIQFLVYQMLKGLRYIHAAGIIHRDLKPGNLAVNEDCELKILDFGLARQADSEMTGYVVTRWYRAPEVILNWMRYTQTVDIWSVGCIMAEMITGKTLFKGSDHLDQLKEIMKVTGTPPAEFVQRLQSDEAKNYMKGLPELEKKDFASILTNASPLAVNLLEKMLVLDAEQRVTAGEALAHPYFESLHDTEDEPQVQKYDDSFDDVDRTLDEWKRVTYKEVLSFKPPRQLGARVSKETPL
Put plainly: p38γ kinase enzyme system with ADP-Glo kinase assay. It counts as biochemical. The procedure:
The inhibitory assay of p38γ was performed using the p38γ kinase enzyme system (Promega, Madison, WI, USA) with the ADP-Glo™ kinase assay kit (Promega, Madison, WI, USA). The kinase reactions were conducted in a total assay volume of 5 μL in a white 384-well plate. The kinase reaction mixture per well was composed using the reaction buffer supplemented with 50μM DTT and contained 50 ng p38γ, 1μg p38 substrate, 50 μM ATP, and the tested compound at the specified concentrations. Positive control wells receive 5% DMSO instead of 1 μL of the compound solution, and negative control wells are without both compound and enzyme in the reaction. After incubation of the plates at room temperature for 60 min, the reaction was stopped with 5 μL of ADP-Glo™ reagent for 40 min. Next, 10 µL of kinase detection reagent was added and incubated for another 30 min to convert the ADP to ATP. The ATP was then detected by measuring the luminescence using a Victor Nivo multimode microplate reader (PerkinElmer, Waltham, MA, USA) in an integration time of 1 s per well. The relative kinase activity was calculated as follows: p38γ kinase activity %=Lumenescence of compound−luminescence of negative control /Lumenescence of positive control−luminescence of negative control ×100%
as §2
(In general: ADP-Glo turns the ADP formed in a reaction into a luminescent signal.)

The test system of another experiment is HepG2 cells. The experiment can be described thus: CCK-8 cytotoxicity assay, HepG2. The class given is cell-based, human. The procedure:
as §1, §2

Experiment [2] concerns the target T1, p38γ. More on the design: method as in PMID 29758280. The conditions noted are these: read-out: experimental IC50 on p38γ; cited from earlier work.

For orientation: IC50 means the concentration that gives 50% inhibition.

Where two headings read alike, the source gives them in different places. A value given as a limit tells only on which side of the number the result lay.

For `O=C(C1CC(=O)N(C2CCS(=O)(=O)C2)C1)N1CCC(c2c[nH]c3ncccc23)CC1` (centres unmarked) [compound 2, 1-(1,1-dioxothiolan-3-yl)-4-[4-(1H-pyrrolo [2,3-b]pyridin-3-yl)piperidine-1-carbonyl]pyrrolidin-2-one], the “effect on viability of Huh7 cells” value in the experiment with Huh7 cells (1 µM, 48 h) is on record as “no effect”. The “effect on HCC cell growth (Huh7)” value in the experiment on Huh7 cells (10 and 100 µM, 48 h) was “potent inhibitory effects”. The IC50 in the experiment on Huh7 cells (Homo sapiens, Huh-7, 48 h treatment) was 11.9 µM; on p38γ [1] (12-point four-fold dilution from 100 μM, 50 μM ATP) it was 0.0168 µM; in the experiment on HepG2 cells (Homo sapiens, HepG2, 48 h treatment), 19.2 µM. In addition, the figures for the “reduction of p38γ activity” value at p38γ [1] (1 μM), at p38γ [1] (10 μM) and on p38γ [1] (100 μM) were 72.43%, 93.12% and 96.18%, respectively. Further, in the experiment with HepG2 cells (1 µM, 48 h), the “effect on viability of HepG2 cells” value is “no effect”. Also, in the experiment with HepG2 cells (10 and 100 µM, 48 h), the “effect on HCC cell growth (HepG2)” value was “potent inhibitory effects”.
`Cc1ccc(=O)n(-c2ccccc2)c1` [pirfenidone]: the 50% inhibitory concentration (IC50) at p38γ [2] is more than 125 µM.
